Earlier results in PubChem BioAssay AID1259409 (Chemical Carcinogenesis Research Information System (CCRIS), 2018).
“And” between values parts separate entries of the source, which are not always exact repeats. Identical values can stand only once.

Tested on: rodent chemically induced tumor inhibition, incidence and multiplicity
Assay: CCRIS tumor inhibitor studies
Conditions: Route [Inhibitor]: ORAL

For `CSCCC(N)C(=O)O` (configuration not stated), the “tumour outcome (control, treated, inhibition, significance)” value (Carcinogen: 3'-METHYL-4-DIMETHYLAMINOAZOBENZENE, 55-80-1, Dose [Inhibitor]: 0.72% IN DIET DAILY FOR 4 WK STARTING AFTER COMPLETION OF THE FIRST 4 WK OF CARCINOGEN TREATMENT (STUDY DURATION: 20 WK), Species: RAT, Target Tissue: Type of Lesion: LIVER: TUMOR, Dose [Carcinogen]: 0.064% IN DIET DAILY FOR 8 WK, 4 WK BEFORE AND ANOTHER 4 WK AFTER AGENT TREATMENT, Promoter: NONE USED) is listed as 7/15 (47%), 8/15 (53%), -13%, not calculated and 7/9 (78%), 8/12 (67%), 14%, not calculated, the “tumour outcome (control, treated, inhibition, significance)” value (Carcinogen: 4-DIMETHYLAMINOAZOBENZENE, 60-11-7, Dose [Inhibitor]: 0.5% OF DIET DAILY STARTING SIMULTANEOUSLY WITH CARCINOGEN TREATMENT AND CONTINUING THROUGH END OF STUDY (STUDY DURATION, Species: RAT, Strain/Sex: OSBORNE-MENDEL/MALE, Target Tissue: Type of Lesion: LIVER: MALIGNANT TUMOR, Dose [Carcinogen]: 0.06% OF DIET DAILY, Promoter: NONE USED) is listed as 48/80 (60%), 18/20 (90%), -50%, not calculated and the “tumour outcome (control, treated, inhibition, significance)” value (Carcinogen: 7,12-DIMETHYLBENZ[A]ANTHRACENE, 57-97-6, Dose [Inhibitor]: 0.5% DIET FOR 1 YR STARTING 5 D PRIOR TO CARCINOGEN TREATMENT (STUDY DURATION: 1 YR), Species: RAT, Strain/Sex: ALBINO/FEMALE, Target Tissue: Type of Lesion: HEMATPOIETIC SYSTEM: LEUKEMIA, Dose [Carcinogen]: 1.5 MG 1/WK FOR 3 WK, Promoter: NONE USED) is listed as 5/32 (16%), 2/34 (6%), 63%, not significant. For the same compound, the “tumour outcome (control, treated, inhibition, significance)” value (Carcinogen: 7,12-DIMETHYLBENZ[A]ANTHRACENE, 57-97-6, Dose [Inhibitor]: 0.5% DIET FOR 1 YR STARTING 5 D PRIOR TO CARCINOGEN TREATMENT (STUDY DURATION: 1 YR), Species: RAT, Strain/Sex: ALBINO/FEMALE, Target Tissue: Type of Lesion: MAMMARY GLAND: ADENOCARCINOMA, Dose [Carcinogen]: 1.5 MG 1/WK FOR 3 WK, Promoter: NONE USED) was 22/32 (69%), 6/34 (18%), 74%, p<0.0001, the “tumour outcome (control, treated, inhibition, significance)” value (Carcinogen: 7,12-DIMETHYLBENZ[A]ANTHRACENE, 57-97-6, Dose [Inhibitor]: 0.5% DIET FOR 1 YR STARTING 5 D PRIOR TO CARCINOGEN TREATMENT (STUDY DURATION: 1 YR), Species: RAT, Strain/Sex: ALBINO/FEMALE, Target Tissue: Type of Lesion: MAMMARY GLAND: FIBROADENOMA, Dose [Carcinogen]: 1.5 MG 1/WK FOR 3 WK, Promoter: NONE USED) was 21/32 (66%), 14/32 (41%), 38%, p 0.025 and the “tumour outcome (control, treated, inhibition, significance)” value (Carcinogen: 7,12-DIMETHYLBENZ[A]ANTHRACENE, 57-97-6, Dose [Inhibitor]: 0.5% DIET FOR 1 YR STARTING 5 D PRIOR TO CARCINOGEN TREATMENT (STUDY DURATION: 1 YR), Species: RAT, Strain/Sex: ALBINO/FEMALE, Target Tissue: Type of Lesion: ZYMBAL'S GLAND: CARCINOMA, Dose [Carcinogen]: 1.5 MG 1/WK FOR 3 WK, Promoter: NONE USED) was 5/32 (16%), 6/34 (18%), -13%, not significant. The “tumour outcome (control, treated, inhibition, significance)” value (Carcinogen: DIETHYLNITROSAMINE, 55-18-5, Dose [Inhibitor]: 0, 1.5% IN DIET BEGINNING 1 WK POST CARCINOGEN DOSE (STUDY DURATION: 52 WK), Species: MOUSE, Strain/Sex: C3H/MALE, Target Tissue: Type of Lesion: LIVER: ADENOMA, Dose [Carcinogen]: 150 MG/KG ONCE, Promoter: NONE USED) was 14%, 9%, 36%, not calculated, the “tumour outcome (control, treated, inhibition, significance)” value (Carcinogen: DIETHYLNITROSAMINE, 55-18-5, Dose [Inhibitor]: 0, 1.5% IN DIET BEGINNING 1 WK POST CARCINOGEN DOSE (STUDY DURATION: 52 WK), Species: MOUSE, Strain/Sex: C3H/MALE, Target Tissue: Type of Lesion: LIVER: ADENOMA, Dose [Carcinogen]: 150 MG/KG ONCE, Promoter: PHENOBARBITAL, 50-06-6) was 16%, 22%, -38%, not calculated and the “tumour outcome (control, treated, inhibition, significance)” value (Carcinogen: DIETHYLNITROSAMINE, 55-18-5, Dose [Inhibitor]: 0, 1.5% IN DIET BEGINNING 1 WK POST CARCINOGEN DOSE (STUDY DURATION: 52 WK), Species: MOUSE, Strain/Sex: C3H/MALE, Target Tissue: Type of Lesion: LIVER: CARCINOMA, Dose [Carcinogen]: 150 MG/KG ONCE, Promoter: NONE USED) was 71%, 77%, -8%, not calculated. The “tumour outcome (control, treated, inhibition, significance)” value (Carcinogen: DIETHYLNITROSAMINE, 55-18-5, Dose [Inhibitor]: 0, 1.5% IN DIET BEGINNING 1 WK POST CARCINOGEN DOSE (STUDY DURATION: 52 WK), Species: MOUSE, Strain/Sex: C3H/MALE, Target Tissue: Type of Lesion: LIVER: CARCINOMA, Dose [Carcinogen]: 150 MG/KG ONCE, Promoter: PHENOBARBITAL, 50-06-6) was 74%, 33%, 55%, p<0.01, the “tumour outcome (control, treated, inhibition, significance)” value (Carcinogen: DIETHYLNITROSAMINE, 55-18-5, Dose [Inhibitor]: 0, 1.5% IN DIET BEGINNING 1 WK POST CARCINOGEN DOSE (STUDY DURATION: 52 WK), Species: MOUSE, Strain/Sex: C3H/MALE, Target Tissue: Type of Lesion: LUNG: ADENOMA OR ADENOCARCINOMA, Dose [Carcinogen]: 150 MG/KG ONCE, Promoter: NONE USED) was 6/14 (43%), 12/22 (55%), -28%, not calculated and the “tumour outcome (control, treated, inhibition, significance)” value (Carcinogen: DIETHYLNITROSAMINE, 55-18-5, Dose [Inhibitor]: 0, 1.5% IN DIET BEGINNING 1 WK POST CARCINOGEN DOSE (STUDY DURATION: 52 WK), Species: MOUSE, Strain/Sex: C3H/MALE, Target Tissue: Type of Lesion: LUNG: ADENOMA OR ADENOCARCINOMA, Dose [Carcinogen]: 150 MG/KG ONCE, Promoter: PHENOBARBITAL, 50-06-6) was 7/19 (37%), 0/9 (0%), 100%, not calculated. The “tumour outcome (control, treated, inhibition, significance)” value (Carcinogen: ETHIONINE, 13073-35-3, Dose [Inhibitor]: 1.35 MMOL/100 G DIET DAILY FOR 4.5 MO ADMINISTERED SIMULTANEOUSLY WITH CARCINOGEN FOLLOWED BY NORMAL STOCK DIET FOR REMA, Species: RAT, Strain/Sex: WISTAR/MALE, Target Tissue: Type of Lesion: LIVER: CARCINOMA, Dose [Carcinogen]: 0.25% OF DIET DAILY FOR 8 MO, Promoter: NONE USED) was 9/9 (100%), 2/8 (25%), 75%, not calculated, the “tumour outcome (control, treated, inhibition, significance)” value (Carcinogen: ETHIONINE, 13073-35-3, Dose [Inhibitor]: 2 MMOL/100 G DIET DAILY FOR 8 MO ADMINISTERED SIMULTANEOUSLY WITH CARCINOGEN FOLLOWED BY 2 MO ON NORMAL STOCK DIET (STUD, Species: RAT, Strain/Sex: WISTAR/MALE, FEMALE, Target Tissue: Type of Lesion: LIVER: CARCINOMA, Dose [Carcinogen]: 0.25% OF DIET DAILY FOR 8 MO, Promoter: NONE USED) was 9/10 (90%), 5/10 (50%), 44%, not calculated and the “tumour outcome (control, treated, inhibition, significance)” value (Carcinogen: ETHIONINE, 13073-35-3, Dose [Inhibitor]: 4 MMOL/100 G DIET DAILY FOR 4.5 MO ADMINISTERED SIMULTANEOUSLY WITH CARCINOGEN FOLLOWED BY NORMAL STOCK DIET FOR REMAIND, Species: RAT, Strain/Sex: WISTAR/MALE, Target Tissue: Type of Lesion: LIVER: CARCINOMA, Dose [Carcinogen]: 0.25% OF DIET DAILY FOR 8 MO, Promoter: NONE USED) was 9/9 (100%), 0/10 (0%), 100%, not calculated. For the same compound, the “tumour outcome (control, treated, inhibition, significance)” value (Carcinogen: ETHIONINE, 13073-35-3, Dose [Inhibitor]: 4 MMOL/100 G DIET DAILY FOR 8 MO ADMINISTERED SIMULTANEOUSLY WITH CARCINOGEN FOLLOWED BY 4 MO ON BASAL DIET (STUDY DURAT, Species: RAT, Strain/Sex: WISTAR/MALE, Target Tissue: Type of Lesion: LIVER: CARCINOMA, Dose [Carcinogen]: 0.25% OF DIET DAILY FOR 12 MO, Promoter: NONE USED) was 8/8 (100%), 0/9 (0%), 100%, not calculated, the “tumour outcome (control, treated, inhibition, significance)” value (Carcinogen: ETHIONINE, 13073-35-3, Dose [Inhibitor]: 5.4 MMOL/100 G DIET DAILY FOR 4.5 MO ADMINISTERED SIMULTANEOUSLY WITH CARCINOGEN FOLLOWED BY NORMAL STOCK DIET FOR REMAI, Species: RAT, Strain/Sex: WISTAR/MALE, Target Tissue: Type of Lesion: LIVER: CARCINOMA, Dose [Carcinogen]: 0.25% OF DIET DAILY FOR 8 MO, Promoter: NONE USED) was 9/9 (100%), 0/10 (0%), 100%, not calculated and the “tumour outcome (control, treated, inhibition, significance)” value (Carcinogen: ETHIONINE, 13073-35-3, Dose [Inhibitor]: 5.4 MMOL/100 G DIET DAILY FOR 8 MO ADMINISTERED SIMULTANEOUSLY WITH CARCINOGEN FOLLOWED BY 4 MO ON BASAL DIET (STUDY DUR, Species: RAT, Strain/Sex: WISTAR/MALE, Target Tissue: Type of Lesion: LIVER: CARCINOMA, Dose [Carcinogen]: 0.25% OF DIET DAILY FOR 12 MO, Promoter: NONE USED) was 8/8 (100%), 0/9 (0%), 100%, not calculated. For the same compound, the “tumour outcome (control, treated, inhibition, significance)” value (Carcinogen: N-METHYL-N-NITROSOUREA, 684-93-5, Dose [Inhibitor]: 0.5% DIET FOR 1 YR STARTING 5 D PRIOR TO CARCINOGEN TREATMENT (STUDY DURATION: 1 YR), Species: RAT, Strain/Sex: ALBINO/FEMALE, Target Tissue: Type of Lesion: HEMATOPOIETIC SYSTEM: LEUKEMIA, Dose [Carcinogen]: 50 MG/KG 1/WK FOR 2 WK, Promoter: NONE USED) was 9/28 (32%), 5/29 (17%), 47%, not significant, the “tumour outcome (control, treated, inhibition, significance)” value (Carcinogen: N-METHYL-N-NITROSOUREA, 684-93-5, Dose [Inhibitor]: 0.5% DIET FOR 1 YR STARTING 5 D PRIOR TO CARCINOGEN TREATMENT (STUDY DURATION: 1 YR), Species: RAT, Strain/Sex: ALBINO/FEMALE, Target Tissue: Type of Lesion: KIDNEY: MESENCHYMAL TUMOR, Dose [Carcinogen]: 50 MG/KG 1/WK FOR 2 WK, Promoter: NONE USED) was 15/28 (54%), 17/29 (59%), -9%, not significant and the “tumour outcome (control, treated, inhibition, significance)” value (Carcinogen: N-METHYL-N-NITROSOUREA, 684-93-5, Dose [Inhibitor]: 0.5% DIET FOR 1 YR STARTING 5 D PRIOR TO CARCINOGEN TREATMENT (STUDY DURATION: 1 YR), Species: RAT, Strain/Sex: ALBINO/FEMALE, Target Tissue: Type of Lesion: MAMMARY GLAND: ADENOCARCINOMA, Dose [Carcinogen]: 50 MG/KG 1/WK FOR 2 WK, Promoter: NONE USED) was 9/28 (32%), 4/29 (14%), 56%, p 0.05. For the same compound, the “tumour outcome (control, treated, inhibition, significance)” value (Carcinogen: N-METHYL-N-NITROSOUREA, 684-93-5, Dose [Inhibitor]: 0.5% DIET FOR 1 YR STARTING 5 D PRIOR TO CARCINOGEN TREATMENT (STUDY DURATION: 1 YR), Species: RAT, Strain/Sex: ALBINO/FEMALE, Target Tissue: Type of Lesion: MAMMARY GLAND: FIBROADENOMA, Dose [Carcinogen]: 50 MG/KG 1/WK FOR 2 WK, Promoter: NONE USED) was 5/28 (18%), 6/29 (21%), -17%, not significant.
